Consider three molecules from PMC6374029 (Antiviral Research, 2018).

The conditions of data set [1]: human, in vivo; cited from earlier work.
The next data set deals with EBOV minigenome. The format is cell-based, Ebola virus.
A further data set can be described thus: in vitro. Conditions: human.
The test system of a further data set is Ebola virus. The note with it: in vivo; cited from earlier work.

As to `CCNCc1cc(Nc2ccnc3cc(Cl)ccc23)ccc1O` [desethyl-amodiaquine], the half-life in data set [1] was 220 to 432 h.
As for `COc1c(C)c2c(c(O)c1C/C=C(\C)CCC(=O)O)C(=O)OC2` [mycophenolic acid], the “activity of EBOV minigenome (firefly luciferase normalized to renilla)” value with EBOV minigenome is “effectively blocked the signal from the minigenome”.
Turning to `CCN(CC)Cc1cc(Nc2ccnc3cc(Cl)ccc23)ccc1O` [Amodiaquine, amodiaquine], the Selectivity index in the data set with Huh7 cells is reported as 37. This molecule registered a CC50 in the data set “in vitro” of 79 µM. For the same molecule, the case mortality with Ebola virus was 50%.

One may read the half-life as the time in which the quantity being followed falls by half.
